One may read the Papp A→B as how fast a substance crosses the layer from the apical side. One may read the efflux ratio as a quotient of directional permeabilities that is used to spot active efflux. The half-life is the time needed for the level to fall by half in the phase considered. A higher half-life goes with slow decline. Broadly, the IC50 is the point on the concentration scale where inhibition reaches its midpoint. A higher IC50 goes with weaker potency. One may read the Papp B→A as how fast a substance crosses the layer from the basolateral side. In general, solubility refers to how much of the substance goes into solution per volume. Lower therefore signals a poorly soluble substance.

Values after ≈ are worked out from the molar mass of the structure shown. Peptide text beside a SMILES is read from it. * marks the point of attachment. Cbz = O=C(OCc1ccccc1)*; Acryloyl = C=CC(=O)*; OtBu = CC(C)(C)O*

This is an account of results in ChEMBL document CHEMBL2203174, “SAR Development of Lysine-Based Irreversible Inhibitors of Transglutaminase 2 for Huntington's Disease” (ACS Med Chem Lett, 2012).

The nature of data set [1]: Apparent permeability of the compound across apical to basolateral side in wild type MDCK cells at 10 uM. Type of data set: ADME, cell-based, Canis lupus familiaris. The settings on record: dog.
A further data set relates to MDR1. The data set can be described thus: Efflux ratio of permeability in MDCK cells expressing MDR1 at 10 uM. The following applies: dog. Type of data set: ADME, cell-based, Canis lupus familiaris.
A short description of data set [2]: Intrinsic clearance in human liver microsomes at 1 uM by LC-MS/MS analysis. It is filed as ADME, Microsome. The following applies: read-out: CLH. Background: Microsomes from liver hold many membrane-bound enzymes, among them those of drug oxidation.
Data set [3] in a line: Half life in mouse plasma at 1 uM by LC-MS/MS analysis. It is filed as ADME, cell-free.
A short description of data set [4]: Half life in human plasma at 1 uM by LC-MS/MS analysis. Type of data set: ADME, cell-free.
Data set [5] can be described thus: Kinetic solubility of the compound in PBS at pH 7.4 by LC-UV analysis. It is filed as physicochemical. The following applies: read-out: Kinetic_solubility.
The target in data set [6] is T1, Coagulation factor XIII A chain (Homo sapiens, UniProt P00488).
T1 sequence (P00488 whole entry): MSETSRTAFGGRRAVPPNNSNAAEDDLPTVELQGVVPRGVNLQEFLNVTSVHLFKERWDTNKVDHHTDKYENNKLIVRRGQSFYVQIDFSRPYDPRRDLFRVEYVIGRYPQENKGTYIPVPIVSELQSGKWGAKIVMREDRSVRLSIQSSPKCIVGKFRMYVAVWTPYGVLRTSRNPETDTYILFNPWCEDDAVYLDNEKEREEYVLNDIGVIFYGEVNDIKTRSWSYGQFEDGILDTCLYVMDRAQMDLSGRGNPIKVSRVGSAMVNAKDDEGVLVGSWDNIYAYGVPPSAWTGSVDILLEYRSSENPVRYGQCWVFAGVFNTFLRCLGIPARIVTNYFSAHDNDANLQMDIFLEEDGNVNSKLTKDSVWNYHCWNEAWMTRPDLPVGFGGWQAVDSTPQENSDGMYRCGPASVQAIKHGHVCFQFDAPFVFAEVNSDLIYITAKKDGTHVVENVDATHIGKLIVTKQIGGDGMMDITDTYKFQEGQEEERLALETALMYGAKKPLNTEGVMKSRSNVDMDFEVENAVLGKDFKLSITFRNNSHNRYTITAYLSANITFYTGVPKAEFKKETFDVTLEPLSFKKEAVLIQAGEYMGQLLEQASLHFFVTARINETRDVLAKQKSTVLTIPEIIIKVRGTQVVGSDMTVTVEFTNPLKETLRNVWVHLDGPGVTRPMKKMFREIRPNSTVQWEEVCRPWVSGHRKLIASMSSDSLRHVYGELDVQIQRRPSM
As to the kind of experiment: Inhibition of coagulation factor 13a.

The nature of data set [7]: Intrinsic clearance in mouse liver microsomes at 1 uM by LC-MS/MS analysis. It is filed as ADME, Microsome. The following applies: read-out: CLH.
Data set [8] is described as follows: Ratio of IC50 for mouse transglutaminase 2 to IC50 for human transglutaminase 2.
A short description of data set [9]: Half life in mouse liver microsomes. Type of data set: ADME, Microsome.
Data set [10] in a line: Apparent permeability of the compound across basolateral to apical side in human Caco2 cells. Type of data set: ADME, cell-based. The following applies: Caco-2. A general note: Caco-2 cells form a polarised layer with tight junctions and transporters.
Data set [11] in a line: Apparent permeability of the compound across apical to basolateral side in human Caco2 cells. The following applies: Caco-2. Type of data set: ADME, cell-based.
Data set [12] is described as follows: Aqueous solubility of the compound. It is filed as physicochemical. The following applies: buffer.
Data set [13] concerns the target T2, Protein-glutamine gamma-glutamyltransferase 2 (Mus musculus, UniProt P21981).
T2 sequence (P21981 whole entry): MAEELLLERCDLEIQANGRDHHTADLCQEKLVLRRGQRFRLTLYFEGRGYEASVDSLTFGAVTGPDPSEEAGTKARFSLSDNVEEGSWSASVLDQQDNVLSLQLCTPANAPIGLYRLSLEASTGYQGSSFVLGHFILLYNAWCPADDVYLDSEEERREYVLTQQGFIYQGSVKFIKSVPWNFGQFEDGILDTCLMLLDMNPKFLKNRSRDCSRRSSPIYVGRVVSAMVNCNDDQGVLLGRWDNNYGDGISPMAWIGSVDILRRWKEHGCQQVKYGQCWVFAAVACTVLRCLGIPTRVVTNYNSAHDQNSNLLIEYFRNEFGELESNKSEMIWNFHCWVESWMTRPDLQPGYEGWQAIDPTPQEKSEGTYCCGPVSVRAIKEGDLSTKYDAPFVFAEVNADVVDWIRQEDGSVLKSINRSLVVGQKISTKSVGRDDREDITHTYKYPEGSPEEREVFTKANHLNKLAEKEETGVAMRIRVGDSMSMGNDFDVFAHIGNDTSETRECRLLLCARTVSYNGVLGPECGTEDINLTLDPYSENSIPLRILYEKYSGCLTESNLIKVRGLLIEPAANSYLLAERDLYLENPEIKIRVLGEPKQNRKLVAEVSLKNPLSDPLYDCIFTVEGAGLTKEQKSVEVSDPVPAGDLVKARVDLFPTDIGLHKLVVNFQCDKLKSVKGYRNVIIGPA
The data set can be described thus: Inhibition of mouse transglutaminase 2.

Consider `C=CC(=O)NCCCC[C@H](NC(=O)Cc1ccccc1)C(=O)N1CCN(c2cccc(C)n2)CC1`, for which the Papp A→B at 10 µM in data set [1] is 14.2 ×10⁻⁶ cm/s. The efflux ratio at 10 µM in the data set on MDR1 amounted to 118. For the same compound, the microsomal CLint at 1 µM in data set [2] was over 1390 µL/min/mg. Moreover, the half-life at 1 µM in data set [3] and in data set [4] was over 24 h throughout. Besides, the solubility kinetic in data set [5] amounted to 870 µg/mL (≈ 1820 µM). Also, inhibition in [6] was half-maximal at 35 µM (IC50).
Consider `C=CC(=O)NCCCC[C@H](NC(=O)OCc1ccccc1)C(=O)N1CCN(c2ccccc2Cl)CC1`, for which the Papp A→B at 10 µM in [1] worked out at 30.3 ×10⁻⁶ cm/s. Also, in the data set on MDR1, the efflux ratio at 10 µM amounted to 7.1. The microsomal CLint at 1 µM in data set [2] and in data set [7] was over 1390 µL/min/mg in each case. Moreover, the half-life at 1 µM in data set [3] and in [4] was over 8 h in each case. Also, the Ratio IC50 in [8] stood at 2. For the same compound, the solubility kinetic in data set [5] was found to be 60 µg/mL (≈ 117 µM). In data set [6], this compound gave an IC50 of 67 µM.
As for `C=CC(=O)NCCCC[C@H](NC(=O)OCc1ccccc1)C(=O)NCC(=O)OC(C)(C)C` (Cbz-Lys(Acryloyl)-Gly-OtBu), in [9], the half-life came out at 7 min. Besides, in data set [10], the basolateral-to-apical permeability (Papp B→A) came out at 25 ×10⁻⁶ cm/s. For the same compound, the Papp A→B in [11] was 7.5 ×10⁻⁶ cm/s. The same compound displayed a solubility in [12] of 1490 µg/mL (≈ 3330 µM). Further, the IC50 in data set [6] was over 80 µM; in [13], 6.2 µM.
